Where “and” joins values, the source holds several entries; their conditions need not be identical. Equal entries are not always repeated.
How the values were obtained:
[1] = system: HBCx-11 patient-derived breast xenograft; test: Anti-tumor activity, HBCx-11 patient-derived breast xenograft model; type: in vivo, Athymic nude mice; settings: Compound 1 100 mg/kg p.o. once daily 28 days + cisplatin 3 mg/kg i.v. once weekly x4; HBCx-11 PDX, nude mice; FIG. 8A
Description: Six to nine week old female Athymic nude mice from Envigo were anesthetized and a 20 mm^3 tumor fragment placed subcutaneously via incision in the flank. When tumors established to a tumor volume of between 75 and 196 mm^3 mice were randomized into groups of 3 and were assigned into the following groups: control, Compound 1 (100 mg/kg), cisplatin (3 mg/kg) or Compound 1 (100 mg/kg) and cisplatin (3 mg/kg) combination. Cisplatin was administered intravenously via tail vein once weekly for a total of 4 doses. Compound 1 was administered via oral gavage once daily for 28 days. Body weight and tumor volume were measured twice per week. Tumor volume was calculated as mean and standard error of the mean for each treatment group.

[2] = system: HBCx-8 patient-derived breast xenograft; test: Anti-tumor activity, HBCx-8 patient-derived breast xenograft model; type: in vivo, Athymic nude mice; settings: Compound 1 100 mg/kg p.o. once daily 42 days + cisplatin 5 mg/kg i.v. once weekly x3; HBCx-8 PDX, nude mice; FIG. 7A
Description: Six to nine week old female Athymic nude mice from Envigo were anesthetized and a 20 mm^3 tumor fragment placed subcutaneously via incision in the flank. […] Cisplatin was administered intravenously via tail vein once weekly for a total of 3 doses. Compound 1 was administered via oral gavage once daily for 42 days. Body weight and tumor volume were measured twice per week. Tumor volume was calculated as mean and standard error of the mean for each treatment group.

[3] = system: MDA-MB-436 cell line-derived breast xenograft; test: Anti-tumor activity, MDA-MB-436 cell line-derived breast xenograft model; type: in vivo; settings: Compound 1 100 mg/kg p.o. once daily 28 days + cisplatin 2 mg/kg i.v. once weekly x4; MDA-MB-436, NOD SCID mice; FIG. 6A
Description: Six to eight week old female NOD SCID mice from Beijing Anikeeper Biotech CO, Ltd were implanted subcutaneously with 1×10^7 MDA-MB-436 cells. When tumors established to a tumor volume of approximately 240 mm^3 mice were randomized into groups of 5 and were assigned into the following groups: control, cisplatin (2 mg/kg), Compound 1 (100 mg/kg) or Compound 1 (100 mg/kg) and cisplatin (2 mg/kg) combination. Cisplatin was administered intravenously via tail vein once weekly for a total of 4 doses. Compound 1 was administered via oral gavage once daily for 28 days. Body weight and tumor volume were measured twice per week. Tumor volume was calculated as mean and standard error of the mean for each treatment group.

GOTO = test: Colony formation (CFU) assay, GOTO; type: cell-based; settings: 336 h, nervous system, CFU ~14 days, wells with DMSO or 300 nM Compound 1, read-out: Chemotherapy nM IC50s
Description: (§1) In vitro experiments were conducted using the colony formation unit (CFU) assay on various cell lines. The CFU assay involved first establishing what cell plating density enabled the development of clearly interspersed colonies on a six-well plate when left to grow for around 14 days. […] At or around day 14 when clearly interspersed colonies were visible in the DMSO-treated wells, the cells were fixed and stained using 0.1% crystal violet in 10% ethanol for 20 minutes at room temperature. The plates were imaged then the amount of crystal violet stain in each well was quantified by extracting the crystal violet into 10% acetic acid and the absorbance measured at 565 nm.
(§2) For certain cell lines, multiple IC50 values were taken, and those are separated by commas. Synergy scores are in parentheticals.

U251MG = test: Colony formation (CFU) assay, U251MG; type: cell-based; settings: Homo sapiens, U-251, 336 h, nervous system, CFU ~14 days, wells with DMSO or 300 nM Compound 1, read-out: Chemotherapy nM IC50s
Description: as §1, §2

BECKER = test: Colony formation (CFU) assay, BECKER; type: cell-based; settings: 336 h, CFU ~14 days, wells with DMSO or 300 nM Compound 1, read-out: Chemotherapy nM IC50s
Description: as §1, §2

HCT116 = test: Colony formation (CFU) assay, HCT116; type: cell-based; settings: HCT116, colon; CFU ~14 days; wells with DMSO or 300 nM Compound 1; read-out: Chemotherapy nM IC50s
Description: as §1, §2

SUM149PT = test: Colony formation (CFU) assay, SUM149PT; type: cell-based; settings: breast
Description: as §1, §2

A549 = test: Colony formation (CFU) assay, A549; type: cell-based; settings: A549, lung
Description: as §1, §2

[4] = Maximum tolerated dose of Compound 1 cocrystal in combination with cisplatin, non-tumor bearing mice; settings: non-tumor bearing female Balb/c nude mice; Compound 1 oral gavage once daily 28 days + cisplatin i.v. once a week days 0, 7, 14, 21
Description: The maximum tolerated dose (MTD) of the USP1 inhibitor Compound 1 cocrystal in combination with cisplatin was evaluated in non-tumor bearing Balb/c nude mice. 6-8 week old female Balb/c nude mice from Beijing Anikeeper Biotech Co. Ltd were randomized into groups of 5 for control, cisplatin (4 mg/kg) alone, cisplatin (5 mg/kg) alone, cisplatin (6 mg/kg) alone, Compound 1 (50 mg/kg) and cisplatin (4 mg/kg) combination group, Compound 1 (100 mg/kg) and cisplatin (4 mg/kg) combination group, Compound 1 (300 mg/kg) and cisplatin (4 mg/kg) combination group, Compound 1 (50 mg/kg) and cisplatin (5 mg/kg) combination group, Compound 1 (100 mg/kg) and cisplatin (5 mg/kg) combination group, Compound 1 (300 mg/kg) and cisplatin (5 mg/kg) combination group, Compound 1 (50 mg/kg) and cisplatin (6 mg/kg) combination group, Compound 1 (100 mg/kg) and cisplatin (6 mg/kg) combination group, and Compound 1 (300 mg/kg) and cisplatin (6 mg/kg) combination group. Mice were treated with the relevant dose of Compound 1 via oral gavage once daily for 28 days or relevant dose of cisplatin via intravenous injection once a week on days 0, 7, 14, and 21. […]
Body weights were measured daily. Tolerability was assessed by monitoring body weight and calculating body weight changes as % from body weight on day of treatment start (day 0), as shown in FIG. 1-3. […]

NCIH1650 = test: Colony formation (CFU) assay, NCIH1650; type: cell-based; settings: NCIH1650, lung
Description: as §1, §2

647V = test: Colony formation (CFU) assay, 647V; type: cell-based; settings: bladder
Description: as §1, §2

various cell lines = test: Colony formation (CFU) assay, summary over cell lines of Table 1; type: cell-based; settings: combination of USP1 inhibitor (Compound 1, 300 nM) and the chemotherapy agent
Description: as §1
In certain cell lines, combinations of the disclosure are synergistic. In some aspects, these combinations are determined to have a Bliss score is about 6, about 7, about 8, about 9, about 10, about 11, about 12, about 13, about 14, about 15, about 16, about 17, about 18, about 19, about 20 or about 25.

KU1919 = test: Colony formation (CFU) assay, KU1919; type: cell-based; settings: KU1919, bladder
Description: as §1, §2

[5] = single dose in Balb/c nude mice; Aston W., et al., BMC Cancer 17:684 (2017); cited from earlier work
HBCx9 = test: Colony formation (CFU) assay, HBCx9; type: cell-based; settings: HBCx9, breast
Description: as §1, §2

UMUC3 = test: Colony formation (CFU) assay, UMUC3; type: cell-based; settings: UMUC3, bladder
Description: as §1, §2

5637 = test: Colony formation (CFU) assay, 5637; type: cell-based; settings: 5637, bladder
Description: as §1, §2

HBCx8 = test: Colony formation (CFU) assay, HBCx8; type: cell-based; settings: HBCx8, breast
Description: as §1, §2

NCIH596 = test: Colony formation (CFU) assay, NCIH596; type: cell-based; settings: NCIH596, lung
Description: as §1, §2

HT1376 = test: Colony formation (CFU) assay, HT1376; type: cell-based; settings: HT1376, bladder
Description: as §1, §2

UBLC1 = test: Colony formation (CFU) assay, UBLC1; type: cell-based; settings: UBLC1, bladder
Description: as §1, §2

U2OS = test: Colony formation (CFU) assay, U2OS; type: cell-based; settings: bone
Description: as §1, §2

HCC1806 = test: Colony formation (CFU) assay, HCC1806; type: cell-based; settings: HCC1806, breast; CFU ~14 days; wells with DMSO or 300 nM Compound 1; read-out: Chemotherapy nM IC50s (converted)
Description: as §1, §2

[6] = CFU ~14 days, wells with DMSO or 300 nM Compound 1, read-out: Chemotherapy nM IC50s
[7] = chemotherapy agent in combination with 300 nM Compound 1

## COc1ncnc(C2CC2)c1-c1ncc2cnn(Cc3ccc(-c4nc(C(F)(F)F)cn4C(C)C)cc3)c2n1 [Compound 1, 6-(4-cyclopropyl-6-methoxypyrimidin-5-yl)-1-(4-(1-isopropyl-4-(trifluoromethyl)-1H-imidazol-2-yl)benzyl)-1H-pyrazolo[3,4-d]pyrimidine]
[1]
  anti-tumor activity (tumor volume) of combination versus single agents: superior and more prolonged anti-tumor activity
[2]
  anti-tumor activity (tumor volume) of combination versus single agents: more prolonged anti-tumor activity
[3]
  anti-tumor activity (tumor volume) of combination versus single agents: more prolonged anti-tumor activity

## Cn1nnc2c(C(N)=O)ncn2c1=O [Temozol., Temozolomide]
GOTO
  IC50: < 1 nM
U251MG
  IC50: < 1 nM
BECKER
  IC50: < 1 nM

## N.N.[Cl][Pt][Cl] [Cis., cisplatin]
HCT116
  IC50: 1260 nM and 895 nM
SUM149PT; [6]
  IC50: > 316 nM
SUM149PT; [7]
  synergy score: (10)
A549; [6]
  IC50: > 316 nM
A549; [7]
  synergy score: (11)
[4]
  combination MTD: 6 mg/kg
NCIH1650; [6]
  IC50: > 1000 nM
NCIH1650; [7]
  synergy score: (−1)
647V; [6]
  IC50: 1780 nM
647V; [7]
  synergy score: 0
Various cell lines
  synergy of combination with USP1 inhibitor: synergy was detected
KU1919; [6]
  IC50: 894 nM
KU1919; [7]
  synergy score: (1)
[5]
  reported MTD: 6 mg/kg
HBCx9; [6]
  IC50: 473 nM
HBCx9; [7]
  synergy score: (−1)
UMUC3; [6]
  IC50: 212 nM
UMUC3; [7]
  synergy score: (1)
5637; [6]
  IC50: 598 nM
5637; [7]
  synergy score: (12)
HBCx8; [6]
  IC50: 142 nM
HBCx8; [7]
  synergy score: (1)
NCIH596; [6]
  IC50: 129 nM
NCIH596; [7]
  synergy score: (0)
HT1376; [6]
  IC50: 734 nM
HT1376; [7]
  synergy score: (10)
UBLC1; [6]
  IC50: 308 nM
UBLC1; [7]
  synergy score: (−2)
U2OS; [6]
  IC50: > 316 nM
U2OS; [7]
  synergy score: (3)
HCC1806
  IC50: 97 nM and 130 nM

Source: patent US20250213574A1, “THERAPEUTIC COMBINATIONS COMPRISING UBIQUITIN- SPECIFIC-PROCESSING PROTEASE 1 (USP1) INHIBITORS AND CHEMOTHERAPY AGENTS” (KSQ Therapeutics, Inc., priority 2022, published 2025)
